Test results taken from US20240254119A1 (THIRD HARMONIC BIO, INC., priority 2022, published 2024).

How the values were obtained:
[1] = biological target: T1, PDGFRα (Homo sapiens, UniProt P16234); experiment: Caliper biochemical assay, PDGFRα; conditions: Table 6
T1 construct: purchased Millipore 14-467 (lot 26321_ACTI)
Procedure, shortened: (§1)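 Kinase, FAM-labelled peptide substrate, ATP and Mn^2+ incubated with compound for 3 h at 25° C, then quenched with EDTA buffer. Substrate and phosphorylated product separated by microfluidic electrophoresis and quantified by fluorescence intensity; no-enzyme wells define 100% inhibition.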

[2] = biological target: T2, CSF-1R (Homo sapiens, UniProt P07333); experiment: Caliper biochemical assay, CSF-1R; conditions: Table 6
T2 construct: purchased Invitrogen PV3249 (lot 662393N)
T2 sequence (P07333 20-972): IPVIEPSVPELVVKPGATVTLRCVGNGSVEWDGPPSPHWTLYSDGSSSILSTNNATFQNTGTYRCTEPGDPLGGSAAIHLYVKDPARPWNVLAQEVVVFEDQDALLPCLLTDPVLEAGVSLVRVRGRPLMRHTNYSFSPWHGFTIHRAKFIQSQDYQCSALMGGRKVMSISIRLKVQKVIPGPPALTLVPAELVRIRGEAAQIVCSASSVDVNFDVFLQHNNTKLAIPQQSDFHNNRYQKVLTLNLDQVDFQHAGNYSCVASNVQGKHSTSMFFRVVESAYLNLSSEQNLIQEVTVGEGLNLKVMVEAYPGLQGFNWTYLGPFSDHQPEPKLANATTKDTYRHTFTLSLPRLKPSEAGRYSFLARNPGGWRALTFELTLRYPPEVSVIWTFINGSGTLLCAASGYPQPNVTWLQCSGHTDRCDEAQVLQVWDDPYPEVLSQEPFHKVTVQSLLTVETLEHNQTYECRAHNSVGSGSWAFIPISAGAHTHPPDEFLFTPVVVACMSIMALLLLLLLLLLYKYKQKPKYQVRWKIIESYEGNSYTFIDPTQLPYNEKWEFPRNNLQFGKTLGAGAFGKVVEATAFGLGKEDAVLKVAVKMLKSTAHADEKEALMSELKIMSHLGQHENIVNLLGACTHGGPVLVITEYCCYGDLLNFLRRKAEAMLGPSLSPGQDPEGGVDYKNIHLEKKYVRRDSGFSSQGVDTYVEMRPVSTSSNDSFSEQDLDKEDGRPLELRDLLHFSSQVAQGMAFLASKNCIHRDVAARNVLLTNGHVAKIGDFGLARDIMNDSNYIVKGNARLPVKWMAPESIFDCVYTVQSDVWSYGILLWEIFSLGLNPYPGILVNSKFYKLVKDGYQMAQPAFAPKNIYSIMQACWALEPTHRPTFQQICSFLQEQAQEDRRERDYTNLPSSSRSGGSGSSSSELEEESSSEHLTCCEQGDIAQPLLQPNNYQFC
Procedure, shortened: as §1

[3] = Kinetic solubility assay; format: physicochemical; conditions: kinetic solubility, 50 mM PB (pH 7.4), shaken 24 hours at RT
Procedure, shortened: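 Test compounds from 10 mM DMSO stock were diluted in 50 mM phosphate buffer, pH 7.4, and shaken for 24 h at RT. After PTFE filtration and centrifugation, filtrate concentration was quantified by UPLC-UV/HPLC-UV against a standard curve.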

[4] = biological target: T3, BCRP (BCRP-MDCKII monolayer) (Homo sapiens, UniProt Q9UNQ0); experiment: MDCKII-BCRP bidirectional transport assay; format: in vitro ADME; conditions: for MDCK-BCRP: Papp A-B: apical to basolateral
T3 construct: host or cells: MDCKII (canine kidney) cells
T3 sequence (Q9UNQ0 1-655): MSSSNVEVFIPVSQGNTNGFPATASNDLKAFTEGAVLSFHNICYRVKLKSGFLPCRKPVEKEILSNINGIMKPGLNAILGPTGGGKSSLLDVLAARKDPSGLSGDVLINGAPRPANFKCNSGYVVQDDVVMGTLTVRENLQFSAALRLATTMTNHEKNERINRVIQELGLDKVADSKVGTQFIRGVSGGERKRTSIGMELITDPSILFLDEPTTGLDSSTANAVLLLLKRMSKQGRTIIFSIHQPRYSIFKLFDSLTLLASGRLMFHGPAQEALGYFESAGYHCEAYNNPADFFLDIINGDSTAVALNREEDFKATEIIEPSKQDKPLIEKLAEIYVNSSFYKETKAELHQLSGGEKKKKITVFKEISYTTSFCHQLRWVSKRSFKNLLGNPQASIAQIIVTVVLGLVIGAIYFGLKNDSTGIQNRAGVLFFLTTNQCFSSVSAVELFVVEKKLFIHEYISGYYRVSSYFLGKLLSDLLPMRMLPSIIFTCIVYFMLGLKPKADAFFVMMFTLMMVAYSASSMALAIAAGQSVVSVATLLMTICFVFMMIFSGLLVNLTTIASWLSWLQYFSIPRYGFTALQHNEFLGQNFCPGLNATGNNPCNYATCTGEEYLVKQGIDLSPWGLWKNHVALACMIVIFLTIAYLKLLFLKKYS
Procedure, shortened: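 Bidirectional A→B and B→A transport across PreadyPort BCRP-MDCKII monolayers (days 12–15) was run in duplicate for 120 min at 37° C, 5% CO2 after a 15 min preincubation. Compound levels were measured by LC-MS/MS. Papp and recovery were calculated, with efflux ratio indicating transporter engagement.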

[5] = biological target: T4, wtKIT (Homo sapiens, UniProt P10721); experiment: Caliper biochemical assay, wtKIT; conditions: Table 6, read-out: KIT Biochemical IC50 avg
T4 construct: 1888289AM in the reaction mixtures
T4 sequence (P10721 26-976): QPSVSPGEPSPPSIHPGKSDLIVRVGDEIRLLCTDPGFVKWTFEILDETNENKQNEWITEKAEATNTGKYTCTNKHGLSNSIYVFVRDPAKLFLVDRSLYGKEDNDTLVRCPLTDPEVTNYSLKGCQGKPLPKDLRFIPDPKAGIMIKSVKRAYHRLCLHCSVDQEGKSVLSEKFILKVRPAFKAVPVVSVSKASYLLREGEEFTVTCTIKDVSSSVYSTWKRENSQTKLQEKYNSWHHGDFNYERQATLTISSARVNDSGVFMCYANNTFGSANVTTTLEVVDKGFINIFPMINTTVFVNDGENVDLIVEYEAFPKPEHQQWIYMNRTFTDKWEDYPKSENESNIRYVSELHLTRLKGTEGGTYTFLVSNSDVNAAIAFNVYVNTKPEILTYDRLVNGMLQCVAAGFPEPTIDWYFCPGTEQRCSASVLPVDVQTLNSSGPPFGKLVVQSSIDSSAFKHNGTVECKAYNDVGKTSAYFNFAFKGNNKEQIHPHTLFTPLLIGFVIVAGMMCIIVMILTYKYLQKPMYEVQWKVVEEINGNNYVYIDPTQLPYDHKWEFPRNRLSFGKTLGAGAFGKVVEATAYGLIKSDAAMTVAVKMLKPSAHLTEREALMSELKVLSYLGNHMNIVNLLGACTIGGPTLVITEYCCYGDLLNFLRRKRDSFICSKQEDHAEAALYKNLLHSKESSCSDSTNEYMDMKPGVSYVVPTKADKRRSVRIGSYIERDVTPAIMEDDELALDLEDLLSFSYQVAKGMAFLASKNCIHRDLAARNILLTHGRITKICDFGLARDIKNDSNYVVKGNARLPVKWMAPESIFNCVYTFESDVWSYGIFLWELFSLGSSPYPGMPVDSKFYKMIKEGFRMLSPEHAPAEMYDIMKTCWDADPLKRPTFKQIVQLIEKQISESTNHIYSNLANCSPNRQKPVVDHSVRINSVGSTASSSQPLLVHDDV
Procedure, shortened: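 Enzyme (5.0 nM wtKIT), 1 μM FAM-labelled peptide, 400 μM ATP and 10 mM MnCl2 in HEPES pH 7.5 with 1% DMSO, incubated 3 h at 25° C. EDTA quench; substrate and phosphoproduct separated by microfluidic electrophoresis and quantified by fluorescence.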

T1 sequence (P16234 24-1089): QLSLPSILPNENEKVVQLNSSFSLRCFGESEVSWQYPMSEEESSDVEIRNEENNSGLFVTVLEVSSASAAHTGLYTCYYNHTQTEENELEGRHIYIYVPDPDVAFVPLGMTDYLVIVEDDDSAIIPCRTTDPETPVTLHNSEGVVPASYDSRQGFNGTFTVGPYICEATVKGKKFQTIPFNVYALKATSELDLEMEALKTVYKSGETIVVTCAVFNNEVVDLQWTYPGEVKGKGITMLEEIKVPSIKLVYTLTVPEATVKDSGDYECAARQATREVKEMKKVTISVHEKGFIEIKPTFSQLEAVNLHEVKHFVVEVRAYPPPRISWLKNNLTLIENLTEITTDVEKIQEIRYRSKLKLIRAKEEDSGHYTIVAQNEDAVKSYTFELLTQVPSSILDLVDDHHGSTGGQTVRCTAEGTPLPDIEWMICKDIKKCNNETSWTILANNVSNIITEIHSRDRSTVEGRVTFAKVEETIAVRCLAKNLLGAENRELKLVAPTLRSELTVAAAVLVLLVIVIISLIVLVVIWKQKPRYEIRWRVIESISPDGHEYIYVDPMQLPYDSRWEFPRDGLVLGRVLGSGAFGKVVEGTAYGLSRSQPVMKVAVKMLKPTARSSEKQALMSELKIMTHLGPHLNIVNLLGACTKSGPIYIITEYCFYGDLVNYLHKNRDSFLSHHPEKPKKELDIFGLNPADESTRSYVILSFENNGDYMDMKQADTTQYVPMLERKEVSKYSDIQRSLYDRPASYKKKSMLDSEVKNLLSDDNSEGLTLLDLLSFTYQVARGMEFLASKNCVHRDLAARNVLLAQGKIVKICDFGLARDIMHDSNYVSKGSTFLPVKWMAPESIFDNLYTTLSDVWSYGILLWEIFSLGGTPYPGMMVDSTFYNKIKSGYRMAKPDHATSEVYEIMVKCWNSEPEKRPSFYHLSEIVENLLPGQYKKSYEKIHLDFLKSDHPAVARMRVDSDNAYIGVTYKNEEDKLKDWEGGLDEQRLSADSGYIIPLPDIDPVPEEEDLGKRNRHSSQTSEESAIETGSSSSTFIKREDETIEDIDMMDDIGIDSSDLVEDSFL

| Compound | IC50 [1] | IC50 [2] | Solubility (μM) [3] | MDCK-BCRP: Efflux Ratio [4] | MDCK-BCRP: Papp A-B [4] | IC50 [5] |
| --- | --- | --- | --- | --- | --- | --- |
| Cc1ccc(-c2noc([C@H]3C[C@@H]3F)n2)cc1NC(=O)c1cnc2cc(N3CCC3)ccn12 [Compound I-295] | ≤ 50 nM | ≤ 50 nM | **** (a solubility less than or equal to 2 μM) | 1.58 | 6.12 10^−6 cm/s | ≤ 50 nM |
| Cc1cc(C)cc(Nc2ccc3ncc(C(=O)Nc4cc(-c5noc([C@H]6C[C@@H]6F)n5)ccc4C)n3c2)c1 [Compound I-299] | 50 to 500 nM | ≤ 50 nM | **** (a solubility less than or equal to 2 μM) | 13.7 | 0.01 10^−6 cm/s | ≤ 50 nM |
| CCCNc1ccn2c(C(=O)Nc3cc(-c4noc([C@H]5C[C@@H]5F)n4)ccc3C)cnc2c1 [Compound I-304] | ≤ 50 nM | ≤ 50 nM | **** (a solubility less than or equal to 2 μM) | 3.43 | 5.05 10^−6 cm/s | ≤ 50 nM |
| Cc1ccc(-c2noc(CCO)n2)cc1NC(=O)c1cnc2ccccn12 [Compound I-306] | 5000 to 30000 nM | 50 to 500 nM | * (a solubility greater than 50 μM) | 23.2 | 1.46 10^−6 cm/s | ≤ 50 nM |
| Cc1ccc(-c2noc(C3(N)CC4(CC(F)(F)C4)C3)n2)cc1NC(=O)c1cnc2ccccn12 [Compound I-307] | 500 to 5000 nM | ≤ 50 nM | ** (a solubility greater than 10 μM and less than or equal to 50 μM) | 3.77 | 7.39 10^−6 cm/s | ≤ 50 nM |
| Cc1ccc(-c2noc(CC(=O)O)n2)cc1NC(=O)c1cnc2ccccn12 [Compound I-335] | 500 to 5000 nM | 500 to 5000 nM | * (a solubility greater than 50 μM) | 0.37 | 1.99 10^−6 cm/s | 50 to 500 nM |
| Cc1ccc(-c2noc(CO)n2)cc1NC(=O)c1cnc2ccccn12 [Compound I-337] | 50 to 500 nM | 50 to 500 nM | * (a solubility greater than 50 μM) | 4.71 | 3.73 10^−6 cm/s | ≤ 50 nM |
| COC(=O)N1CC(c2nc(-c3ccc(Cl)c(NC(=O)c4cnc5ccccn45)c3)no2)C1 [Compound I-339] | 500 to 5000 nM | ≤ 50 nM | **** (a solubility less than or equal to 2 μM) | 1.75 | 13 10^−6 cm/s | ≤ 50 nM |
| O=C(Nc1cc(-c2noc([C@H]3C[C@@H]3F)n2)ccc1Br)c1cnc2ccccn12 [Compound I-340] | 50 to 500 nM | ≤ 50 nM | **** (a solubility less than or equal to 2 μM) | 0.28 | 80.4 10^−6 cm/s | ≤ 50 nM |
| O=C(Nc1cc(-c2noc([C@H]3C[C@@H]3F)n2)ccc1Cl)c1cnc2ccccn12 [Compound I-341] | 50 to 500 nM | ≤ 50 nM | **** (a solubility less than or equal to 2 μM) | 0.84 | 10.1 10^−6 cm/s | ≤ 50 nM |
| Cc1ccc(-c2noc([C@H]3CC(F)(F)CN3)n2)cc1NC(=O)c1cnc2ccccn12 [Compound I-359] | 500 to 5000 nM | 50 to 500 nM | * (a solubility greater than 50 μM) | 7.14 | 4.68 10^−6 cm/s | ≤ 50 nM |
| Cc1nc(-c2ccc(C)c(NC(=O)c3cnc4ccccn34)c2)no1 [Compound I-360] | 500 to 5000 nM | 500 to 5000 nM | ** (a solubility greater than 10 μM and less than or equal to 50 μM) | 1.52 | 9.54 10^−6 cm/s | ≤ 50 nM |
| Cc1ccc(-c2noc(C3CC4(CCC4)C3)n2)cc1NC(=O)c1cnc2ccccn12 [Compound I-367] | ≤ 50 nM | ≤ 50 nM | **** (a solubility less than or equal to 2 μM) | 1.18 | 0.83 10^−6 cm/s | ≤ 50 nM |
| Cc1ccc(-c2noc(C3CC(OCCF)C3)n2)cc1NC(=O)c1cnc2ccccn12 (stereo not drawn) [Compound I-369] | 500 to 5000 nM | 50 to 500 nM | ** (a solubility greater than 10 μM and less than or equal to 50 μM) | 1.62 | 8.93 10^−6 cm/s | ≤ 50 nM |
| Cc1ccc(-c2noc(C3CC(F)C3)n2)cc1NC(=O)c1cnc2ccccn12 (stereo not drawn) [Compound I-381] | 50 to 500 nM | ≤ 50 nM | **** (a solubility less than or equal to 2 μM) | 1.25 | 10.1 10^−6 cm/s | ≤ 50 nM |
| Cc1ccc(-c2noc([C@H]3C[C@@H]3F)n2)cc1NC(=O)c1cnc2ccc(C#N)cn12 [Compound I-384] | 5000 to 30000 nM | ≤ 50 nM | **** (a solubility less than or equal to 2 μM) | 12.9 | 0.59 10^−6 cm/s | ≤ 50 nM |
| Cc1ccc(-c2noc(C3CC(C)(F)C3)n2)cc1NC(=O)c1cnc2ccccn12 (stereo not drawn) [Compound I-387] | 50 to 500 nM | ≤ 50 nM | *** (a solubility greater than 2 μM and less than or equal to 10 μM) | 0.82 | 13.8 10^−6 cm/s | ≤ 50 nM |
